Measurements taken from patent publication US20080299193A1, “Pharmaceutical composition comprising eszoplicone” (Lek Pharmaceuticals d.d., priority 2007, published 2008).
≈ marks a conversion by molar mass, not a printed value.

Key:
[1] = Solubility of eszopiclone in phosphate buffer media at pH 6.8; format: physicochemical
Description: Substance containing larger particles has in general lower surface area which may result in decreased water solubility and consequently in decreased biological activity due to impaired absorption from the gastrointestinal tract. […] The solubility was measured at pH 6.8, which represents the pH in the small intestine, a primary site of drug absorption. Therefore, no effect on the gastrointestinal absorption can be expected due to larger particles of eszopiclone.
The solubility of eszopiclone in phosphate buffer media at pH 6.8 was studied at room temperature. An excess of sample was placed in the laboratory beaker filled with 50 ml media and mixed on the magnetic stirrer for 60 minutes. Afterwards, the part of the dispersion was taken from the beaker, filtered through the 0.45 μm filter and the concentration of eszopiclone was determined by UV spectroscopy.

[2] = Stress stability testing at 60° C. for 14 days, impurities by HPLC; format: physicochemical
Description: Tablets comprising eszopiclone with different particle sizes were prepared and exposed to stress stability testing at 60° C. for 14 days, stored in vials. The amount of formed degradation products was compared to the sample of commercially available tablets comprising eszopiclone (Lunesta®).
The HPLC analysis were performed with a WATERS Acquity UPLC system equipped with a UPLC BEH Shield, 1.7 μm, 50×2.1 mm column which was maintained in a column oven at 45° C. The mobile phase consisted of a mixture of ammonium acetate, TEA and acetonitrile with pH=5.8. The flow rate was 1.0 mL/min, and the detection wavelength was 303 nm.
All impurities eluted within 21 minutes represent the total amount of eszopiclone impurities.

In the case of CN1CCN(C(=O)O[C@H]2c3nccnc3C(=O)N2c2ccc(Cl)cn2)CC1 [Eszopiclone with d(0.9) > 200 μm], the “Solubility compared to substance having fine particles (in words)” value ([1]; pH 6.8) is reported as “comparable” and the solubility at 60 min ([1]; phosphate buffer, pH 6.8, aqueous buffer, thermodynamic from solid, phosphate buffer pH 6.8, room temperature, 60 minutes stirring, filtered 0.45 μm, UV spectroscopy) is reported as 570 µg/mL (≈ 1470 µM).

For CN1CCN(C(=O)O[C@H]2c3nccnc3C(=O)N2c2ccc(Cl)cn2)CC1 [Eszopiclone with d(0.9) = 32.4 μm], the “Solubility at pH 6.8” value ([1]; phosphate buffer pH 6.8, room temperature, 60 minutes stirring, filtered 0.45 μm, UV spectroscopy) was 0.44 mg/ml.

For CN1CCN(C(=O)O[C@H]2c3nccnc3C(=O)N2c2ccc(Cl)cn2)CC1 [Substance in a crystal form, (+)-5(S)-6-(chloropyridin-2-yik)-7-oxo-6,7-dihydro-5H-pyrrolo[3,4-b]pyrazin-5-yl 4-methylpiperazine-1-carboxylate], the “Stability at elevated temperature (in words)” value ([2]; 60° C. for 14 days) was “stable”, the “Total sum of impurities” value ([2]; 14 days, 60° C., stored in vials, all impurities eluted within 21 minutes) was less than 0.05% and the Max. unknown ([2]; 14 days, 60° C., stored in vials, maximum unknown impurity) was less than 0.05%.
